Results as given in patent US8940690B2, “Synthetic conjugates and uses thereof” (National Institutes of Health (NIH), priority 2009, dated 2015).

Columns and labels:
[1] = Serum insulin (PK) profile after subcutaneous injection, Human Insulin ELISA; type: in vivo, rat; conditions: 5 U/kg
Method: Blood samples were collected via tail vein bleeding at 0 minutes and at 30, 60, 90, 120, 150, 180, 210, 240, and 300 minutes after injection. Blood from each timepoint was centrifuged at 4 C to collect the serum. Serum insulin concentrations were subsequently measured with a commercially available ELISA kit (Human Insulin ELISA, Mercodia, Uppsala, Sweden).
This example describes the serum insulin and blood glucose depression profiles obtained for a subcutaneously administered exemplary conjugate. […] In this case, the conjugate was injected at 5 U/kg behind the neck of fasted normal non-diabetic rats (Male Sprague-Dawley, 400-500 g, n=3). […] Serum insulin concentrations were subsequently measured with a commercially available ELISA kit (Human Insulin ELISA, Mercodia, Uppsala, Sweden).
In each case, the conjugate or insulin lispro was injected at 3.5 U/kg behind the neck of fasted normal non-diabetic rats (Male Sprague-Dawley, 400-500 gm, n=6). […] Serum insulin concentrations were subsequently measured with a commercially available ELISA kit (Human Insulin ELISA, Mercodia, Uppsala, Sweden).
Blood samples were collected via tail vein bleeding at 0 minutes and at 30, 60, 90, 120, 150, 180, 210, 240, and 300 minutes after injection. […] Serum insulin concentrations were subsequently measured with a commercially available ELISA kit (Human Insulin ELISA, Mercodia, Uppsala, Sweden).

[2] = test system: fasted normal non-diabetic rats (Male Sprague-Dawley); experiment: Blood glucose depression profile after subcutaneous injection; type: in vivo, rat
Method: Subcutaneous injections of the insulin-dextran were administered using 0.25 ml of a sterilized 1×PBS solution (20 U of equivalent insulin/ml) behind the neck of fasted normal non-diabetic rats (Male Sprague-Dawley, 200-250 g, n=4). Blood samples were collected via tail vein bleeding at −15 and 0 minutes, and at 15, 30, 45, 60, 90, 120, 180, 240, 300 and 360 minutes after injection. Blood glucose values were measured using commercially available test strips (Precision Xtra, Abbott Laboratories, Abbott Park, Ill.).
This example evaluates the in vivo pharmacodynamic profile of subcutaneously administered insulin-glycogen. […] The bioactivity of the insulin-glycogen conjugate was evaluated by injecting a 2.5 equivalent U of insulin/kg dose behind the neck of fasted normal non-diabetic rats (Male Sprague-Dawley, 200-250 g, n=4). Blood samples were collected via tail vein bleeding at −15 and 0 minutes, and at 15, 30, 45, 60, 90, 120, 180, 240, 300 and 360 minutes after injection. Blood glucose values were measured using commercially available test strips (Precision Xtra, Abbott Laboratories, Abbott Park, Ill.).

[3] = 0.25 ml of 20 U of equivalent insulin/ml

With “B29-substituted conjugate: synthesized using TSAT-C6 as the framework, AEM as the affinity ligand, and recombinant human insulin as the drug” the “pharmacokinetic profile (serum insulin) compared to RHI and B1-substituted conjugate” value [1] was “statistically indistinguishable from that of RHI”.
With “insulin-dextran: comparative insulin-dextran conjugate (dextran MW 70K) made by CNBr coupling, 10% (w/w) insulin” the “time serum glucose levels remain depressed post injection” value [2, 3] was “at least five” and the “time to reach the glucose nadir (Tnadir)” value [2, 3] was “about 3 hours”.
For “insulin-glycogen: comparative insulin-glycogen conjugate from oyster glycogen Type II according to US 20070099820”, the “glucose lowering compared to insulin-dextran conjugates” value ([2]; 2.5 equivalent U of insulin/kg) was “lower glucose levels much more rapidly and to a greater extent”.
